Measurements published in paper PMC10215804, “Exploring Alternative Pathways to Target Bacterial Type II Topoisomerases Using NBTI Antibacterials: Beyond Halogen-Bonding Interactions” (Antibiotics, 2023).
Where two headings read alike, the source gives them in different places.

Assays:
S. aureus topoIV = target: T1, S. aureus topoIV (Staphylococcus aureus, UniProt P0C1U9); assay: biochemical; details: relaxation inhibition; mean of two independent measurements ± SD
T1 construct: purchased Inspiralis (Norwich, UK)
Procedure: (§1) To determine the IC50 values of the compounds for S. aureus and E. coli, a DNA gyrase supercoiling high-throughput plate assay and a topoIV relaxation high-throughput plate assay were performed. Assay kits and black streptavidin-coated 96-well microtiter plates are available from Inspiralis (Norwich, UK). For pre-screening, an inhibitor concentration of 100 μM was used. […] A nonlinear regression-based fit of the inhibition curves was used, with the log [inhibitor] versus slope of the reaction variables (four parameters) and a symmetric equation. […] To determine IC50 values, two independent repetitions were performed and the average was calculated.

S. aureus DNA gyrase = target: T2, S. aureus DNA gyrase (Staphylococcus aureus, UniProt P20831); assay: biochemical; details: supercoiling inhibition; mean of two independent measurements ± SD
T2 construct: purchased Inspiralis (Norwich, UK)
Procedure: as §1

E. coli topoIV = target: T3, E. coli topoIV (Escherichia coli, UniProt P0AFI2); assay: topoIV relaxation inhibition assay (high-throughput plate assay); assay type: biochemical
T3 construct: purchased Inspiralis (Norwich, UK)
Procedure: as §1

E. coli DNA gyrase = target: T4, E. coli DNA gyrase (Escherichia coli, UniProt P0AES4); assay: DNA gyrase supercoiling inhibition assay (high-throughput plate assay); assay type: biochemical
T4 construct: purchased Inspiralis (Norwich, UK)
Procedure: as §1

E. faecalis RDK 057 = assay: MIC, broth microdilution; assay type: cell-based
Procedure: (§2) For the determination of minimum inhibitory concentrations (MIC), the broth microdilution method was used in 96-well plate format, according to the guidelines of the Clinical and Laboratory Standards Institute and the recommendations of the European Committee on Antimicrobial Susceptibility Testing (EUCAST). The dilutions of the bacterial suspension of the specific bacterial strain, corresponding to the 0.5 McFarland turbidity standard, were prepared with […] Mueller–Hinton broth with TES (Thermo Fisher Scientific) to obtain an end inoculum of 10^5 CFU/mL. The compounds were dissolved in DMSO and mixed with the inoculum. […] The MIC was determined as the lowest concentration of antibiotic that prevented visible bacterial growth. Tetracycline was used as a positive control on each test plate.

E. coli (ATCC 25922) = assay: MIC, broth microdilution; assay type: cell-based; details: Escherichia coli
Procedure: as §2

E. coli D22 = assay: MIC, broth microdilution; assay type: cell-based; details: Escherichia coli
Procedure: as §2

S. aureus (ATCC 29213) = assay: MIC, broth microdilution; assay type: cell-based; details: Staphylococcus aureus, ATCC29213
Procedure: as §2

K. pneumoniae = assay: MIC, broth microdilution; assay type: cell-based; details: Klebsiella pneumoniae
Procedure: as §2

E. coli ESBL QA-11.3 = assay: MIC, broth microdilution; assay type: cell-based; details: Escherichia coli
Procedure: as §2

A. baumannii = assay: MIC, broth microdilution; assay type: cell-based; details: Acinetobacter baumannii
Procedure: as §2

[1] = Metabolic activity assessment (cytotoxicity), CellTiter 96 Aqueous One; assay type: cell-based; details: human, 72 h treatment, means of three independent measurements ± SD
Procedure: HUVEC (ATCC® CRL-1730™) and HepG2 (ATCC® HB-8065™) cell lines were cultured in Dulbecco’s Modified Eagle Medium (DMEM; Sigma-Aldrich, St. Louis, MO, USA) supplemented with 10% heat-deactivated FBS (Gibco, Grand Island, NE, USA), 2 mM L-glutamine, 100 U/mL penicillin, 100 μg/mL streptomycin (all from Sigma-Aldrich, St. Louis, MO, USA) in a humidified chamber at 37 °C and 5% CO2. The experiments were carried out on passages 4–7 for both cell lines. The tested compounds were dissolved in DMSO and further diluted in culture medium to a desired final concentration. The cells were then seeded into 96-well plates at 5 × 10^4 cells/mL (100 μL/well) or 8 × 10^4 cells/mL (100 μL/well) for HUVEC and HepG2, respectively. The cells were then incubated for 24 h to allow attachment onto the wells. The cells were treated with 1 μM and 50 μM of each compound of interest, or the corresponding vehicle as control. […] Their metabolic activity was assessed after 72 h treatment using a CellTiter 96 Aqueous One Solution Cell Proliferation Assay (Promega, Madison, WI, USA), in accordance with the manufacturer’s instructions. The absorbance was measured at 492 nm on an automated microplate reader, Tecan Spark (Tecan Group Ltd., Männedorf, CH, Switzerland). Data are presented as the percentage of metabolic activity of control cells stimulated with vehicle, or as an IC50 value (mean ± SD) from three independent experiments, each conducted in triplicate (for screening) or duplicate (for IC50 determination). IC50 values were calculated using a non-linear regression model and with Graph Pad Prism 9 software.

human topoisomerase IIα = target: T5, human topoisomerase IIα (Homo sapiens, UniProt P11388); assay: human topoisomerase II alpha relaxation high-throughput assay (selectivity); assay type: biochemical; details: residual activity at 100 µM compound; mean ± SD, two independent experiments; read-out: Human TopoIIα (% RA at 100 µM)
T5 construct: purchased Inspiralis (Norwich, UK)
Procedure: For selectivity determination, a human topoisomerase II alpha relaxation high-throughput assay was used. The assay kits and black streptavidin-coated 96-well microtiter plates are available from Inspiralis (Norwich, UK). Two independent measurements were performed with an inhibitory concentration of 100 µM. Raw data were calculated as the mean ± SD percentage of the residual enzyme activity.

MRSA(QA-12.1) = assay: MIC, broth microdilution; assay type: cell-based, S. aureus; details: Staphylococcus aureus
Procedure: as §2

MRSA (QA-11.7) = assay: MIC, broth microdilution; assay type: cell-based, S. aureus; details: Staphylococcus aureus
Procedure: as §2

MRSA (QA-11.2) = assay: MIC, broth microdilution; assay type: cell-based, S. aureus; details: Staphylococcus aureus
Procedure: as §2

[2] = Enterococcus faecalis, RDK057; Table S3; read-out: MIC (μM) E. faecalis DRK 057
[3] = ATCC25922, Table S3, read-out: MIC (μM) E. coli (ATCC 25922)
[4] = ATCC25922, read-out: MIC E. coli (ATCC 25922)
[5] = D22, Table S3, lpxC mutation, read-out: MIC (μM) E. coli D22
[6] = D22, lpxC mutation that increases membrane permeability, read-out: MIC E. coli D22
[7] = Table S3, read-out: MIC (μM) S. aureus (ATCC 29213)
[8] = read-out: MIC S. aureus (ATCC 29213)
[9] = Table S3, read-out: MIC (μM) K. pneumoniae
[10] = ESBLQA11.3, Table S3, read-out: MIC (μM) E. coli ESBL QA:11.3
[11] = ESBLQA11.3, read-out: MIC E. coli ESBL QA-11.3
[12] = Table S3, read-out: MIC (μM) A. baumannii
[13] = Table S3, read-out: MIC (μM) MRSA(QA-12.1)
[14] = strain resistant to cefoxitin, gentamicin, kanamycin, rifampicin, streptomycin, sulfamethoxazole, tetracycline, read-out: MIC MRSA(QA-12.1)
[15] = Table S3, read-out: MIC (μM) MRSA (QA-11.7)
[16] = strain resistant to cefoxitin, ciprofloxacin, clindamycin, erythromycin, tetracycline, thiamulin, trimethoprim, read-out: MIC MRSA (QA-11.7)
[17] = Table S3, read-out: MIC (μM) MRSA (QA-11.2)
[18] = Enterococcus faecalis, RDK057; read-out: MIC E. faecalis RDK 057
[19] = ATCC25922, 20 h, Table S3, read-out: MIC (μM) E. coli (ATCC 25922)
[20] = 20 h, Table S3, read-out: MIC (μM) K. pneumoniae
[21] = ESBLQA11.3, 20 h, Table S3, read-out: MIC (μM) E. coli ESBL QA:11.3

T2 sequence (P20831 whole entry): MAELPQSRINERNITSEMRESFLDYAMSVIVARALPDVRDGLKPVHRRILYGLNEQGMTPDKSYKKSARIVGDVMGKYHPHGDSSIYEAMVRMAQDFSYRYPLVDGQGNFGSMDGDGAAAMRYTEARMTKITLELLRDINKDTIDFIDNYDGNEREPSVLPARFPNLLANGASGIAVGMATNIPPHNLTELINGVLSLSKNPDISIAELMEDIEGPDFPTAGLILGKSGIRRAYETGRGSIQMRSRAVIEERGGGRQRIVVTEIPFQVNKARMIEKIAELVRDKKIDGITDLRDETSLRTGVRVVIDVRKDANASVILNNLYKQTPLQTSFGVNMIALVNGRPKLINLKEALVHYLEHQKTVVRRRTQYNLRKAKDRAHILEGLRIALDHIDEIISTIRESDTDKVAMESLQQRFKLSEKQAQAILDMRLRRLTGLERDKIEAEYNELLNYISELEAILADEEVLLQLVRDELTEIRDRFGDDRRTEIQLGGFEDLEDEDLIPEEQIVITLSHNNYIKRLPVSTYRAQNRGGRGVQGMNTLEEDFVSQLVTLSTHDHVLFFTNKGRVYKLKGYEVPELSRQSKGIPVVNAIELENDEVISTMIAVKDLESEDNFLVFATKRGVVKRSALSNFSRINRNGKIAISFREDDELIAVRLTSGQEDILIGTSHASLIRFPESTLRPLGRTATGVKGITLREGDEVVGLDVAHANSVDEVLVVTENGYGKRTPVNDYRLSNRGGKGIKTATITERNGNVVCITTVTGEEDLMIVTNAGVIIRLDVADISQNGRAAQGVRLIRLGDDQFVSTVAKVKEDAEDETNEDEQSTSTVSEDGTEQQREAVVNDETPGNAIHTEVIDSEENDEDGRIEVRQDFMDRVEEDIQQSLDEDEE
T2 sequence (P0A0K8 whole entry partner): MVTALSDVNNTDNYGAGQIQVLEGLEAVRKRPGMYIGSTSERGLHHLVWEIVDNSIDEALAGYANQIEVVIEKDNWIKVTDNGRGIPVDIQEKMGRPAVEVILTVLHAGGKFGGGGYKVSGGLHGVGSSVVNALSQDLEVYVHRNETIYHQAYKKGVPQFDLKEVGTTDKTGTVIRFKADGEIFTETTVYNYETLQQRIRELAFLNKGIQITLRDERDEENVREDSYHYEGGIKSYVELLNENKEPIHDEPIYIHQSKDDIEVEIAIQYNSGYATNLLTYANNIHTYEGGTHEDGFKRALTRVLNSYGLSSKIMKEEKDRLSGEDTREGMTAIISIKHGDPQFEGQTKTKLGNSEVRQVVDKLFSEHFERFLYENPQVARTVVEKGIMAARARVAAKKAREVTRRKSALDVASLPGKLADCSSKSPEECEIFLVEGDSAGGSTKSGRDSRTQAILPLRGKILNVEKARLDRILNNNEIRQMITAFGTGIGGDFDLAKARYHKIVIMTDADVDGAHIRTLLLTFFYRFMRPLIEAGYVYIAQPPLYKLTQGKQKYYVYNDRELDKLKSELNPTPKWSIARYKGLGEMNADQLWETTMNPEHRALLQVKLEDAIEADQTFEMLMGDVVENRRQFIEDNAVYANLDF
T3 sequence (P20083 whole entry): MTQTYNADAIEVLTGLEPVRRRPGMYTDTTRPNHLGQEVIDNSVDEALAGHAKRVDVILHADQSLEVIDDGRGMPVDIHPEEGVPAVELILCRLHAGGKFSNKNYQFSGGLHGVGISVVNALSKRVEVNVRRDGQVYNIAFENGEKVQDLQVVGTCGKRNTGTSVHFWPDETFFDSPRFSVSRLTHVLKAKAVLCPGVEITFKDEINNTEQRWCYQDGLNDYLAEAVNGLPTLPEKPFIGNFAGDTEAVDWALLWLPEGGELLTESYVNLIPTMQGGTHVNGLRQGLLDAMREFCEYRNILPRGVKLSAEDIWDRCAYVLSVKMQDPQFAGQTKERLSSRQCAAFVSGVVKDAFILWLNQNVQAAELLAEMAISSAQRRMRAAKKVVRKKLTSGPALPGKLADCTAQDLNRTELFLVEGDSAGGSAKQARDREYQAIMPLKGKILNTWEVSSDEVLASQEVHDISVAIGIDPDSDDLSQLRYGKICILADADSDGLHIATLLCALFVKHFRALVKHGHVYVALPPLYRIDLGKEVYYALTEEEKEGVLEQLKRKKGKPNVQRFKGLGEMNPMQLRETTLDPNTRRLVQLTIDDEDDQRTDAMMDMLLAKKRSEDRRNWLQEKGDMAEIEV
T3 sequence (P0AFI2 whole entry): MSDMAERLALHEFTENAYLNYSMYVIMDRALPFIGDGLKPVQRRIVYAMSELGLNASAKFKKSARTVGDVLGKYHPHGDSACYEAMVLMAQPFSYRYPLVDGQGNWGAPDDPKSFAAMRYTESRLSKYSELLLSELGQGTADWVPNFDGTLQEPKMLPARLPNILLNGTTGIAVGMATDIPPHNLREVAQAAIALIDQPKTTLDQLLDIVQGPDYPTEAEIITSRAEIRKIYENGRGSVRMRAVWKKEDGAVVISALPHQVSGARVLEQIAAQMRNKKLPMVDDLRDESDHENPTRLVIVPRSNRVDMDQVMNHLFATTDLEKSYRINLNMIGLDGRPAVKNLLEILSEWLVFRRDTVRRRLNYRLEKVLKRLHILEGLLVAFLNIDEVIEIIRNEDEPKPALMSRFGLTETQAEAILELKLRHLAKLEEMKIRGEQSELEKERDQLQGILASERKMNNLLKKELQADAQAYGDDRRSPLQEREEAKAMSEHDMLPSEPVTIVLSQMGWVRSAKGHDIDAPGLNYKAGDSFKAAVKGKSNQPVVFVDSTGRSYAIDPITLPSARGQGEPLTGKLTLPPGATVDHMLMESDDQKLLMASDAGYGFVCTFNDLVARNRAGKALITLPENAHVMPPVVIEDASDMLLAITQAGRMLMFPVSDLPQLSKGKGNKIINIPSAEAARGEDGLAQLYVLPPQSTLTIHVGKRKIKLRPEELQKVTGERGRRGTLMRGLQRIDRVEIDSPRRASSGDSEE
T1 sequence (P0C1U9 whole entry): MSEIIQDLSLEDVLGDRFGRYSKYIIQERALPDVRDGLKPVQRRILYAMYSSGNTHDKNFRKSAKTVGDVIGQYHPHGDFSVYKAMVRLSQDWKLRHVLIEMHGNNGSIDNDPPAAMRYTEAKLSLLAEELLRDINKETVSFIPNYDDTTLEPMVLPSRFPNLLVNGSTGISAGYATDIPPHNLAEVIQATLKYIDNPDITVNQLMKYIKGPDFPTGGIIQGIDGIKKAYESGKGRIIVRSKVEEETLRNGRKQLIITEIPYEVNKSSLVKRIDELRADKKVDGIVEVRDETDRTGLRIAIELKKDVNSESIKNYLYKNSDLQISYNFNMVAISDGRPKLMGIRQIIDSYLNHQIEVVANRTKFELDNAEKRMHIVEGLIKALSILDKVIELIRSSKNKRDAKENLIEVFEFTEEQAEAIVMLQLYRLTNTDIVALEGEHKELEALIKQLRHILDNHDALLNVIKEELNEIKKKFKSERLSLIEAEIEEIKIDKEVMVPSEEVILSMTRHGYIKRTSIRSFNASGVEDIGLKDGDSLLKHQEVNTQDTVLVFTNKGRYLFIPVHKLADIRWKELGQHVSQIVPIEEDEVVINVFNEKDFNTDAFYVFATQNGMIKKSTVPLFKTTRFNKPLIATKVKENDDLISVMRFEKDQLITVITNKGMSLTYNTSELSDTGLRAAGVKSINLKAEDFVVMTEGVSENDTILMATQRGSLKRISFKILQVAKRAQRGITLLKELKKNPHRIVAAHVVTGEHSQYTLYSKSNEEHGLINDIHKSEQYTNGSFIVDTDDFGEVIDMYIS
T1 sequence (P0C1S7 whole entry partner): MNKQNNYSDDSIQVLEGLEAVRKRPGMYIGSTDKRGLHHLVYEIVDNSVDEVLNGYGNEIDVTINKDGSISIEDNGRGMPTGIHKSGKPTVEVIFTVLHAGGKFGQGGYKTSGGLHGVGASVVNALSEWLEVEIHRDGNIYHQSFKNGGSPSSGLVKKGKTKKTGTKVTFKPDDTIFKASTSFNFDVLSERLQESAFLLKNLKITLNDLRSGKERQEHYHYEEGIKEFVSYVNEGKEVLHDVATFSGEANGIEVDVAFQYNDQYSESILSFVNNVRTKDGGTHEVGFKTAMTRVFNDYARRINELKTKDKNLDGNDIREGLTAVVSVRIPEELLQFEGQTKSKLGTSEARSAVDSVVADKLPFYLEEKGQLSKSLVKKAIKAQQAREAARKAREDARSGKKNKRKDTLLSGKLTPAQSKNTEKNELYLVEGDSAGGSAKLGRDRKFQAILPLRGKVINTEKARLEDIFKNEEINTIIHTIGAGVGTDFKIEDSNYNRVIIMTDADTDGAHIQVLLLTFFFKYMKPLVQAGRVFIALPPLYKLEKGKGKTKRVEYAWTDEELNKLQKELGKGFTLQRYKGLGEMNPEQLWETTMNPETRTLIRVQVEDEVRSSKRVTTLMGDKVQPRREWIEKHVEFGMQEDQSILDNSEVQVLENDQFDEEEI

Structure (SMILES)	IC50 (S. aureus topoIV) [µM]	IC50 (S. aureus DNA gyrase) [µM]	IC50 (E. coli topoIV) [µM]	IC50 (E. coli DNA gyrase) [µM]	MIC (E. coli (ATCC 25922); [4]) [µg/mL]	MIC (E. coli D22; [6]) [µg/mL]	MIC (S. aureus (ATCC 29213); [7]) [µM]	MIC (S. aureus (ATCC 29213); [8]) [µg/mL]	MIC (K. pneumoniae; read-out: MIC K. pneumoniae) [µg/mL]	MIC (E. coli ESBL QA-11.3; [11]) [µg/mL]	MIC (A. baumannii; [12]) [µM]	MIC (A. baumannii; read-out: MIC A. baumannii) [µg/mL]	IC50 at 72 h ([1]; HUVEC cells (ATCC CRL-1730)) [µM]	IC50 at 72 h ([1]; HepG2 cells (ATCC HB-8065)) [µM]	remaining activity at 100 µM (human topoisomerase IIα) [%]	MIC (MRSA(QA-12.1); [13]) [µM]	MIC (MRSA(QA-12.1); [14]) [µg/mL]	MIC (MRSA (QA-11.7); [15]) [µM]	MIC (MRSA (QA-11.7); [16]) [µg/mL]	MIC (MRSA (QA-11.2); [17]) [µM]	further results
COc1ccc2nccc(CCN3CCC(NCc4ccc(C)cc4)CC3)c2n1 [Compound 5, 1-(2-(6-Methoxy-1,5-naphthyridin-4-yl)ethyl)-N-(4-methylbenzyl)piperidin-4-amine]	1.23 ± 0.258	0.145 ± 0.014	0.089 ± 0.019	1.019 ± 0.005	2	1	0.082	0.032	16	4	2.56	1	36.5 ± 9.82	20 ± 3.01	103	0.041	0.016	0.041	0.016	0.082	MIC (E. faecalis RDK 057; Enterococcus faecalis, RDK057, read-out: MIC E. faecalis RDK 057): 0.125 µg/mL; MIC (E. faecalis RDK 057; [2]): 0.32 µM; MIC (E. coli (ATCC 25922); [3]): 5.12 µM; MIC (E. coli D22; [5]): 2.56 µM; MIC (K. pneumoniae; [9]): 41 µM; MIC (E. coli ESBL QA-11.3; [10]): 10.2 µM; MIC (MRSA (QA-11.2); read-out: MIC MRSA (QA-11.2)): 0.032 µg/mL
COc1ccc2nccc(OCC3CCC(NCc4ccc(C)cc4)CO3)c2n1 (stereo not drawn) [Compound 7, 6-(((6-Methoxy-1,5-naphthyridin-4-yl)oxy)methyl)-N-(4-methylbenzyl)tetrahydro-2H-pyran-3-amine]	> 100	0.194 ± 0.018	1.53 ± 0.043	1.31 ± 0.348	> 128	32	1.28	0.5	> 128	> 128	164	64	> 50	> 50	101	1.28	0.5	2.56	1	0.64	MIC (E. faecalis RDK 057; Enterococcus faecalis, RDK057, read-out: MIC (μM) E. faecalis DRK 057): 10.2 µM; MIC (E. faecalis RDK 057; [18]): 4 µg/mL; MIC (E. coli (ATCC 25922); [19]): > 328 µM; MIC (E. coli D22; [5]): 81.9 µM; MIC (K. pneumoniae; [20]): > 328 µM; MIC (E. coli ESBL QA-11.3; [21]): > 328 µM; MIC (MRSA (QA-11.2); read-out: MIC MRSA (QA-11.2)): 0.25 µg/mL
COc1ccc2nccc(C(O)CC3CCC(NCc4ccc(C)cc4)CC3)c2n1 (stereo not drawn) [Compound 8, 1-(6-Methoxy-1,5-naphthyridin-4-yl)-2-(4-((4-methylbenzyl)amino)cyclohexyl)ethan-1-ol]	2.5 ± 0.252	0.077 ± 0.01	0.083	1.32 ± 0.46	8	1	0.161	0.063	16	8	5.12	2	33.1 ± 6.13	22.3 ± 0.36	100 ± 1	0.161	0.063	0.32	0.125	0.082	MIC (E. faecalis RDK 057; [2]): 0.64 µM; MIC (E. faecalis RDK 057; [18]): 0.25 µg/mL; MIC (E. coli (ATCC 25922); [3]): 20.5 µM; MIC (E. coli D22; D22, read-out: MIC (μM) E. coli D22): 2.56 µM; MIC (K. pneumoniae; [9]): 41 µM; MIC (E. coli ESBL QA-11.3; [10]): 20.5 µM; MIC (MRSA (QA-11.2); read-out: MIC MRSA (QA-11.2)): 0.032 µg/mL
COc1ccc2nccc(OCC3CCC(NCc4ccc(C)cc4)CC3)c2n1 (stereo not drawn) [Compound 6]	> 100	0.403 ± 0.02	2.89 ± 0.88	1.52 ± 0.361	> 128	32	2.56	1	> 128	> 128	164	64	36.6 ± 7.91	22.5 ± 2.7	101	5.12	2	2.56	1	1.28	MIC (E. faecalis RDK 057; [2]): 20.5 µM; MIC (E. faecalis RDK 057; [18]): 8 µg/mL; MIC (E. coli (ATCC 25922); [19]): > 328 µM; MIC (E. coli D22; [5]): 81.9 µM; MIC (K. pneumoniae; [20]): > 328 µM; MIC (E. coli ESBL QA-11.3; [21]): > 328 µM; MIC (MRSA (QA-11.2); read-out: MIC MRSA (QA-11.2)): 0.5 µg/mL
